# Source: ChEMBL document CHEMBL1127134, “Synthesis and antibacterial activity of (1R,5R,6R)-2-tert-butyl-6-(1-hydroxyethyl)oxapenem-3-carboxylic acid” (1993)
# Columns and labels:
# Type in all cases: functional
# [1] = test system: Bacteroides fragilis; experiment: Minimum inhibitory concentration required for the antibacterial activity against Bacillus fragilis 4891/91 Kr
# [2] = test system: Bacteroides fragilis; experiment: Minimum inhibitory concentration required for the antibacterial activity against Bacillus fragilis DSM 2151
# [3] = test system: Bacteroides fragilis; experiment: Minimum inhibitory concentration required for the antibacterial activity against Bacillus fragilis Kr 1 TV
# [4] = test system: Bacteroides fragilis; experiment: Minimum inhibitory concentration required for the antibacterial activity against Bacillus fragilis Kr II
# [5] = test system: Prevotella melaninogenica; experiment: Minimum inhibitory concentration required for the antibacterial activity against Bacillus melaninogenicus Heidelberg
# [6] = test system: Prevotella melaninogenica; experiment: Minimum inhibitory concentration required for the antibacterial activity against Bacillus melaninogenicus Kr
# [7] = test system: Bacteroides ovatus; experiment: Minimum inhibitory concentration required for the antibacterial activity against Bacillus ovatus Heidelberg 32
# [8] = test system: Parabacteroides distasonis; experiment: Minimum inhibitory concentration required for the antibacterial activity against Bacillus distasonis Heidelberg
# [9] = test system: Bacteroides fragilis; experiment: Minimum inhibitory concentration required for the antibacterial activity against Bacillus fragilis 010848
# [10] = test system: Bacteroides fragilis; experiment: Minimum inhibitory concentration required for the antibacterial activity against Bacillus fragilis 06688
# [11] = test system: Bacteroides fragilis; experiment: Minimum inhibitory concentration required for the antibacterial activity against Bacillus fragilis 1560 I/82
# [12] = test system: Bacteroides fragilis; experiment: Minimum inhibitory concentration required for the antibacterial activity against Bacillus fragilis 2034/35 Kr 43
# [13] = test system: Bacteroides fragilis; experiment: Minimum inhibitory concentration required for the antibacterial activity against Bacillus fragilis 4661 Kr
# [14] = test system: Bacteroides thetaiotaomicron; experiment: Minimum inhibitory concentration required for the antibacterial activity against Bacillus thetaiotaomicron 235 Munchen
# [15] = test system: Clostridium perfringens; experiment: Minimum inhibitory concentration required for the antibacterial activity against Clostridium perfringens 1024027
# [16] = test system: Clostridium perfringens; experiment: Minimum inhibitory concentration required for the antibacterial activity against Clostridium perfringens 24072
# [17] = test system: Clostridium perfringens; experiment: Minimum inhibitory concentration required for the antibacterial activity against Clostridium perfringens DSM 756
# [18] = test system: Clostridium butyricum; experiment: Minimum inhibitory concentration required for the antibacterial activity against Clostridium butyricum
# [19] = test system: Thomasclavelia ramosa; experiment: Minimum inhibitory concentration required for the antibacterial activity against Clostridium ramosum DSM 1402
# [20] = test system: Clostridium sporogenes; experiment: Minimum inhibitory concentration required for the antibacterial activity against Clostridium sporogenes
# [21] = test system: Enterococcus; experiment: Minimum inhibitory concentration required for the antibacterial activity against Enterococcus 27158
# [22] = test system: Enterococcus; experiment: Minimum inhibitory concentration required for the antibacterial activity against Enterococcus 9790
# [23] = test system: Enterobacter cloacae; experiment: Minimum inhibitory concentration required for the antibacterial activity against Enterobacter cloacae 56 US
# [24] = test system: Enterobacter cloacae; experiment: Minimum inhibitory concentration required for the antibacterial activity against Enterobacter cloacae 5744
# [25] = test system: Escherichia coli; experiment: Minimum inhibitory concentration required for the antibacterial activity against Escherichia coli 183/58
# [26] = test system: Escherichia coli; experiment: Minimum inhibitory concentration required for the antibacterial activity against Escherichia coli T A261
# [27] = test system: Fusobacterium nucleatum; experiment: Minimum inhibitory concentration required for the antibacterial activity against Fusobacterium nucleatum DSM 20482
# [28] = test system: Klebsiella; experiment: Minimum inhibitory concentration required for the antibacterial activity against Klebsiella 57USA
# [29] = test system: Klebsiella; experiment: Minimum inhibitory concentration required for the antibacterial activity against Klebsiella 6097
# [30] = test system: Klebsiella; experiment: Minimum inhibitory concentration required for the antibacterial activity against Klebsiella 63
# [31] = test system: Micrococcus luteus; experiment: Minimum inhibitory concentration required for the antibacterial activity against Micrococcus luteus
# [32] = test system: Peptostreptococcus anaerobius; experiment: Minimum inhibitory concentration required for the antibacterial activity against Peptostrept. anaer. Kr II
# [33] = test system: Pseudomonas aeruginosa; experiment: Minimum inhibitory concentration required for the antibacterial activity against Pseudomonas aeruginosa 7451
# [34] = test system: Peptostreptococcus anaerobius; experiment: Minimum inhibitory concentration required for the antibacterial activity against Peptostrept. anaer. 222 I/82
# [35] = test system: Peptoniphilus asaccharolyticus; experiment: Minimum inhibitory concentration required for the antibacterial activity against Peptococcus asacchar. DSM 20463
# [36] = test system: Anaerococcus prevotii; experiment: Minimum inhibitory concentration required for the antibacterial activity against Peptococcus prevotii DSM 20548
# [37] = test system: Pseudomonas aeruginosa; experiment: Minimum inhibitory concentration required for the antibacterial activity against Pseudomonas aeruginosa Walter
# [38] = test system: Providencia sp.; experiment: Minimum inhibitory concentration required for the antibacterial activity against Providencia 12012
# [39] = test system: Proteus mirabilis; experiment: Minimum inhibitory concentration required for the antibacterial activity against Proteus mirabilis 1235
# [40] = test system: Proteus vulgaris; experiment: Minimum inhibitory concentration required for the antibacterial activity against Proteus vulgaris 1017
# [41] = test system: Proteus vulgaris; experiment: Minimum inhibitory concentration required for the antibacterial activity against Proteus vulgaris 9023
# [42] = test system: Proteus vulgaris; experiment: Minimum inhibitory concentration required for the antibacterial activity against Proteus vulgaris N6
# [43] = test system: Morganella morganii; experiment: Minimum inhibitory concentration required for the antibacterial activity against Proteus Morganii 932
# [44] = test system: Fusobacterium necrophorum; experiment: Minimum inhibitory concentration required for the antibacterial activity against Sphaerophorus necrophorus Kr
# [45] = test system: Serratia; experiment: Minimum inhibitory concentration required for the antibacterial activity against Serratia 16001
# [46] = test system: Serratia; experiment: Minimum inhibitory concentration required for the antibacterial activity against Serratia 16002
# [47] = test system: Staphylococcus; experiment: Minimum inhibitory concentration required for the antibacterial activity against Staphylococcus E 25485
# [48] = test system: Staphylococcus aureus; experiment: Minimum inhibitory concentration required for the antibacterial activity against Staphylococcus aureus 133
# [49] = test system: Staphylococcus aureus; experiment: Minimum inhibitory concentration required for the antibacterial activity against Staphylococcus aureus 13N Munchen
# [50] = test system: Staphylococcus aureus; experiment: Minimum inhibitory concentration required for the antibacterial activity against Staphylococcus aureus 1756
# [51] = test system: Staphylococcus aureus; experiment: Minimum inhibitory concentration required for the antibacterial activity against Staphylococcus aureus 21b Belgium
# [52] = test system: Staphylococcus aureus; experiment: Minimum inhibitory concentration required for the antibacterial activity against Staphylococcus aureus 25455
# [53] = test system: Staphylococcus aureus; experiment: Minimum inhibitory concentration required for the antibacterial activity against Staphylococcus aureus 25697
# [54] = test system: Staphylococcus aureus; experiment: Minimum inhibitory concentration required for the antibacterial activity against Staphylococcus aureus 25768
# [55] = test system: Staphylococcus aureus; experiment: Minimum inhibitory concentration required for the antibacterial activity against Staphylococcus aureus 41h Belgium
# [56] = test system: Staphylococcus aureus; experiment: Minimum inhibitory concentration required for the antibacterial activity against Staphylococcus aureus 4978 Israel
# [57] = test system: Staphylococcus aureus; experiment: Minimum inhibitory concentration required for the antibacterial activity against Staphylococcus aureus 77 Innsbruck
# [58] = test system: Staphylococcus aureus; experiment: Minimum inhibitory concentration required for the antibacterial activity against Staphylococcus aureus 79B Innsbruck
# [59] = test system: Staphylococcus aureus; experiment: Minimum inhibitory concentration required for the antibacterial activity against Staphylococcus aureus 86 Innsbruck
# [60] = test system: Staphylococcus aureus; experiment: Minimum inhibitory concentration required for the antibacterial activity against Staphylococcus aureus 90 Innsbruck
# [61] = test system: Enterococcus faecalis; experiment: Minimum inhibitory concentration required for the antibacterial activity against Streptococcus faecalis 113
# [62] = test system: Enterococcus faecalis; experiment: Minimum inhibitory concentration required for the antibacterial activity against Streptococcus faecalis 27101
# [63] = test system: Streptococcus pneumoniae; experiment: Minimum inhibitory concentration required for the antibacterial activity against Streptococcus pneumoniae 4959
# [64] = test system: Pseudomonas aeruginosa; experiment: Minimum inhibitory concentration required for the antibacterial activity against Pseudomonas aeruginosa F41
# [65] = test system: Staphylococcus aureus; experiment: Minimum inhibitory concentration required for the antibacterial activity against Staphylococcus aureus 48N Munchen
structure (smiles),measurement,setting,value
C[C@@H](O)[C@H]1C(=O)N2C(C(=O)[O-])=C(C(C)(C)C)O[C@H]12.[K+],MIC,[1],2 µg/mL
same,MIC,[2],1 µg/mL
same,MIC,[3],2 µg/mL
same,MIC,[4],2 µg/mL
same,MIC,[5],4 µg/mL
same,MIC,[6],0.5 µg/mL
same,MIC,[7],2 µg/mL
same,MIC,[8],8 µg/mL
same,MIC,[9],2 µg/mL
same,MIC,[10],2 µg/mL
same,MIC,[11],2 µg/mL
same,MIC,[12],2 µg/mL
same,MIC,[13],2 µg/mL
same,MIC,[14],4 µg/mL
same,MIC,[15],1 µg/mL
same,MIC,[16],0.5 µg/mL
same,MIC,[17],1 µg/mL
same,MIC,[18],2 µg/mL
same,MIC,[19],1 µg/mL
same,MIC,[20],0.5 µg/mL
same,MIC,[21],16 µg/mL
same,MIC,[22],2 µg/mL
same,MIC,[23],16 µg/mL
same,MIC,[24],32 µg/mL
same,MIC,[25],1 µg/mL
same,MIC,[26],2 µg/mL
same,MIC,[27],0.5 µg/mL
same,MIC,[28],4 µg/mL
same,MIC,[29],16 µg/mL
same,MIC,[30],4 µg/mL
same,MIC,[31],≤ 0.06 µg/mL
same,MIC,[32],0.25 µg/mL
same,MIC,[33],> 128 µg/mL
same,MIC,[34],2 µg/mL
same,MIC,[35],0.5 µg/mL
same,MIC,[36],2 µg/mL
same,MIC,[37],> 128 µg/mL
same,MIC,[38],4 µg/mL
same,MIC,[39],4 µg/mL
same,MIC,[40],1 µg/mL
same,MIC,[41],1 µg/mL
same,MIC,[42],1 µg/mL
same,MIC,[43],2 µg/mL
same,MIC,[44],1 µg/mL
same,MIC,[45],64 µg/mL
same,MIC,[46],64 µg/mL
same,MIC,[47],≤ 0.06 µg/mL
same,MIC,[48],0.12 µg/mL
same,MIC,[49],1.56 µg/mL
same,MIC,[50],2 µg/mL
same,MIC,"[50]; Staphylococcus aureus, read-out: MIC",1.56 µg/mL
same,MIC,[51],12.5 µg/mL
same,MIC,[52],0.12 µg/mL
same,MIC,[53],1.56 µg/mL
same,MIC,[54],≤ 0.78 µg/mL
same,MIC,[55],12.5 µg/mL
same,MIC,[56],≤ 0.78 µg/mL
same,MIC,[57],≤ 0.78 µg/mL
same,MIC,[58],≤ 0.78 µg/mL
same,MIC,[59],≤ 0.78 µg/mL
same,MIC,[60],≤ 0.78 µg/mL
same,MIC,[61],16 µg/mL
same,MIC,[62],2 µg/mL
same,MIC,[63],0.25 µg/mL
same,MIC,[64],> 128 µg/mL
same,MIC,[65],≤ 0.78 µg/mL
